Structures can show the parent of a compound that is named as a salt.
What was measured:
Format in all cases: biochemical
[1] = target: T1, recombinant human MAO-B (monoamine oxidase-B) (Homo sapiens, UniProt P27338); assay: Activity on recombinant human MAO-B, Amplex Red method, 1 mM benzylamine substrate; conditions: 1 mM benzylamine, read-out: Inhibitory Activity (IC50, nM) MAO-B
T1 construct: purchased Sigma-Aldrich
T1 sequence (P27338 1-520): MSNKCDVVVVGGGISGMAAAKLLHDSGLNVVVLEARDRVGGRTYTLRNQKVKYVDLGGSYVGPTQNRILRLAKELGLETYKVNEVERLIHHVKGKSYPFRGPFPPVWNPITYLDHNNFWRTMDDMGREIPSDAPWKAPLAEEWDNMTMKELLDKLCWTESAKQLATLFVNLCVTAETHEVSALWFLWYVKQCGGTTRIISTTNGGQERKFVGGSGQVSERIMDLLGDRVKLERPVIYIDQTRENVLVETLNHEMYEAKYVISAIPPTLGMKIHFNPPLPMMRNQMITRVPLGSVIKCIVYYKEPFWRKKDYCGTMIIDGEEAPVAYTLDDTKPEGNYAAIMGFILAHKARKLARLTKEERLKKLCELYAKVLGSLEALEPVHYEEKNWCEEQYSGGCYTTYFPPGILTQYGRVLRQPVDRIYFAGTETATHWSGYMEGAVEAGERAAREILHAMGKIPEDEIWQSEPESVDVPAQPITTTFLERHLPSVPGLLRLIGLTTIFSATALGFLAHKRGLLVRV
Procedure, shortened: (§1)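 First, serially diluted compounds were incubated with recombinant enzyme in 50 mM sodium phosphate, pH 7.4, for 30 min at 37° C. Next, Amplex Red (200 uM), HRP (1 U/mL) and tyramine (0.5 mM, MAO-A) or benzylamine (1 mM, MAO-B) were added. Then fluorescence was monitored over 1-2 h and IC50 fitted.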

[2] = target: T2, recombinant human MAO-A (monoamine oxidase-A) (Homo sapiens, UniProt P21397); assay: Activity on recombinant human MAO-A, Amplex Red method, 0.5 mM tyramine substrate; conditions: 0.5 mM tyramine, read-out: Inhibitory Activity (IC50, nM) MAO-A
T2 construct: purchased Sigma-Aldrich
T2 sequence (P21397 1-527): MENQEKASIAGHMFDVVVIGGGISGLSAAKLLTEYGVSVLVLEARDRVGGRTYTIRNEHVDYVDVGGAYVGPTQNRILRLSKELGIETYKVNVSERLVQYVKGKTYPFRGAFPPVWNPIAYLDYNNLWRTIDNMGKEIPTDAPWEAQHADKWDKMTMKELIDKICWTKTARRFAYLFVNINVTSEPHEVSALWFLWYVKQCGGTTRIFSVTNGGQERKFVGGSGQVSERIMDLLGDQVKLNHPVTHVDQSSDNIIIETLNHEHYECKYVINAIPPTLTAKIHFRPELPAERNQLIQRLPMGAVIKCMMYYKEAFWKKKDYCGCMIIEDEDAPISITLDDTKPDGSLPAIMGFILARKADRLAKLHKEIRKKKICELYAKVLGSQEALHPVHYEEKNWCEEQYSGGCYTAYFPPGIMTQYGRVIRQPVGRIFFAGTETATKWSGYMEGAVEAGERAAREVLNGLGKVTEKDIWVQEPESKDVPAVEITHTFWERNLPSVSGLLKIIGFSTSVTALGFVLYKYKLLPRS
Procedure, shortened: as §1

[3] = target: T3, recombinant human DAO (diamine oxidase) (Homo sapiens, UniProt P19801); assay: Activity on recombinant human DAO, Amplex Red method, 1 mM putrescine substrate; conditions: recombinant human DAO, 1 mM putrescine; * = between 10 and 100 nM, ** = between 300 and 1000 nM; read-out: Inhibitory Activity (IC50, nM) DAO
T3 construct: purchased R&D systems
T3 sequence (P19801 20-751): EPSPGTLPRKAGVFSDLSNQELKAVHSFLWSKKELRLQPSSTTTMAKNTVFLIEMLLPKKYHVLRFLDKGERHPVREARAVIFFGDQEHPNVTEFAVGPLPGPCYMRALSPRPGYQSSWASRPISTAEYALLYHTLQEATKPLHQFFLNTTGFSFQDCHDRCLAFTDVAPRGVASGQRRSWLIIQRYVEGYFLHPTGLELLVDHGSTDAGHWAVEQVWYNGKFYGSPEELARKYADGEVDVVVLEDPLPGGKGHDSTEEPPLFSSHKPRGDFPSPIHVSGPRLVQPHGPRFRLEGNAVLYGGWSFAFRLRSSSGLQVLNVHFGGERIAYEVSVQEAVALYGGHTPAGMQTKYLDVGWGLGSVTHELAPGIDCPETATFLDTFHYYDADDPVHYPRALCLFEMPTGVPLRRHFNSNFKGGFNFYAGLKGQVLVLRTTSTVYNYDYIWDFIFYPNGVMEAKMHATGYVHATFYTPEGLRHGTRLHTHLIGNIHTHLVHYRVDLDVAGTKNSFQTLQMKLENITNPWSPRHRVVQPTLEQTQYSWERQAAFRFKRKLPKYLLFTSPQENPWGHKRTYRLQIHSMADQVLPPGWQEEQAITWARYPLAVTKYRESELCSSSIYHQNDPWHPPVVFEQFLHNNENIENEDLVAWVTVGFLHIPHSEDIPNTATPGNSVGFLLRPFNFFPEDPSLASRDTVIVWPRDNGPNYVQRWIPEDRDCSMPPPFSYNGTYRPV
Procedure, shortened: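 Inhibition of recombinant human DAO (diamine oxidase, R&D systems) was assessed with the Amplex Red Hydrogen Peroxide Assay Kit. Hydrogen peroxide produced from 1 mM putrescine was detected through an HRP-coupled reaction that converts Amplex Red into fluorescent resorufin, read at 544 nm excitation and 590 nm emission. IC50 values came from four-parameter logistic fits in GraphPad Prism.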

recombinant human VAP-1 = target: T4, recombinant human VAP-1 (Homo sapiens, UniProt Q16853); assay: Activity on recombinant human VAP-1, Amplex Red HRP-coupled hydrogen peroxide assay, benzylamine substrate; conditions: recombinant human VAP-1, benzylamine substrate, 30 min preincubation at 37° C.; read-out: Inhibitory Activity (IC50, nM) human VAP-1
T4 construct: purchased R&D systems
T4 sequence (Q16853 1-763): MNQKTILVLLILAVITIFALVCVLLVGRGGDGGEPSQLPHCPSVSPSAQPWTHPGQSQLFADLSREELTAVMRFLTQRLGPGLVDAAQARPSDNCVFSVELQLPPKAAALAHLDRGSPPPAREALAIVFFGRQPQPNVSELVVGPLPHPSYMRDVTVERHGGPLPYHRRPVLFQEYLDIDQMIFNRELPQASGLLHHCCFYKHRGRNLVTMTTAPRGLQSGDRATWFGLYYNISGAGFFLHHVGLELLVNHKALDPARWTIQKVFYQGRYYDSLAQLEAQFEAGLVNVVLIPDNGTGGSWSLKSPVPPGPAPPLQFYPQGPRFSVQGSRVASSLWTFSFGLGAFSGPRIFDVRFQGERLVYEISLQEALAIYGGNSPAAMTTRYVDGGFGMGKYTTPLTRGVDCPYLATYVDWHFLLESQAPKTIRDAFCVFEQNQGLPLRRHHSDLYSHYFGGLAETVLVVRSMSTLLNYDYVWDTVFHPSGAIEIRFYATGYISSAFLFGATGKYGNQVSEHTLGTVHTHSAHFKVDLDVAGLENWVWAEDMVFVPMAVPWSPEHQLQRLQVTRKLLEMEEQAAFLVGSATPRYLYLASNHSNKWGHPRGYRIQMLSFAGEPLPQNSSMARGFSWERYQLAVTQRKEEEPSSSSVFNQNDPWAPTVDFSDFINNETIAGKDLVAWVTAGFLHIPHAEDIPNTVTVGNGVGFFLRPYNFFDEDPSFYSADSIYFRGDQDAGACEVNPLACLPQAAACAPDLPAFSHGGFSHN
Procedure, shortened: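 H2O2 generation from 1 mM benzylamine was coupled via 1 U/mL HRP to 200 uM Amplex Red; inhibitors, serially diluted 1:3 over 8 points with under 1% final DMSO, had been preincubated 30 min at 37 °C. IC50 from percentage drop in rate.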

Row | SMILES | IC50 [1] | IC50 [2] | IC50 [3] | IC50 (recombinant human VAP-1)
1 | NC/C(=C\F)Cn1ncn(-c2cccc(-c3ccc(C4CCOCC4)cc3)c2)c1=O [Example 73, 2-[(2E)-2-(aminomethyl)-3-fluoroprop-2-en-1-yl]-4-[4′-(tetrahydro-2H-pyran-4-yl)biphenyl-3-yl]-2,4-dihydro-3H-1,2,4-triazol-3-one hydrochloride] | > 10000 nM | > 100000 nM | 67 nM | 0.98 nM
2 | NC/C(=C\F)Cn1ncn(-c2cccc(-c3ccc(N4CCOCC4)cc3)c2)c1=O [Example 74, 2-[(2E)-2-(aminomethyl)-3-fluoroprop-2-en-1-yl]-4-[4′-(morpholin-4-yl)biphenyl-3-yl]-2,4-dihydro-3H-1,2,4-triazol-3-one hydrochloride] | > 10000 nM | > 100000 nM | 282 nM | 0.84 nM
3 | NC/C(=C\F)Cn1ncn(-c2cccc(-c3ccc(N4CCOCC4)c(F)c3)c2)c1=O [Example 75, 2-[(2E)-2-(aminomethyl)-3-fluoroprop-2-en-1-yl]-4-[3′-fluoro-4′-(morpholin-4-yl)biphenyl-3-yl]-2,4-dihydro-3H-1,2,4-triazol-3-one hydrochloride] | > 10000 nM | > 100000 nM | < 100 nM | 0.93 nM
4 | COc1cc(-c2cccc(-n3cnn(C/C(=C/F)CN)c3=O)c2)ccn1 [Example 79, 2-[(2E)-2-(aminomethyl)-3-fluoroprop-2-en-1-yl]-4-[3-(2-methoxypyridin-4-yl)phenyl]-2,4-dihydro-3H-1,2,4-triazol-3-one hydrochloride] | 7900 nM | > 100000 nM | 2.2 nM | 0.47 nM
5 | CC(=O)Nc1cc(-c2cccc(-n3cnn(C/C(=C\F)CN)c3=O)c2)ccn1 [Example 80, N-[4-(3-{1-[(2Z)-2-(aminomethyl)-3-fluoroprop-2-en-1-yl]-5-oxo-1,5-dihydro-4H-1,2,4-triazol-4-yl}phenyl)pyridin-2-yl]acetamide hydrochloride] | > 10000 nM | > 100000 nM | 12 nM | 1.1 nM
6 | NC/C(=C\F)Cn1ncn(-c2cccc(-c3cccnc3)c2)c1=O [Example 82, 2-[(2E)-2-(aminomethyl)-3-fluoroprop-2-en-1-yl]-4-[3-(pyridin-3-yl)phenyl]-2,4-dihydro-3H-1,2,4-triazol-3-one hydrochloride] | 18000 nM | > 100000 nM | < 100 nM | 0.8 nM
7 | COc1ccc(-c2cccc(-n3cnn(C/C(=C/F)CN)c3=O)c2)cn1 [Example 83, 2-[(2E)-2-(aminomethyl)-3-fluoroprop-2-en-1-yl]-4-[3-(6-methoxypyridin-3-yl)phenyl]-2,4-dihydro-3H-1,2,4-triazol-3-one hydrochloride] | 2460 nM | > 100000 nM | < 30 nM | 0.88 nM
8 | NC/C(=C\F)Cn1ncn(-c2cccc(-c3ccc(C(F)(F)F)nc3)c2)c1=O [Example 84, 2-[(2E)-2-(aminomethyl)-3-fluoroprop-2-en-1-yl]-4-{3-[6-(trifluoromethyl)pyridin-3-yl]phenyl}-2,4-dihydro-3H-1,2,4-triazol-3-one hydrochloride] | 3000 nM | > 100000 nM | < 10 nM | 0.78 nM

Other lines, results leading:

Row | IC50 [1] | IC50 [2] | IC50 [3] | IC50 (recombinant human VAP-1) | SMILES
9 | > 10000 nM | > 100000 nM | < 100 nM | 0.64 nM | NC/C(=C\F)Cn1ncn(-c2cccc(-c3ccc(N4CCOCC4)c(Cl)c3)c2)c1=O [Example 76, 2-[(2E)-2-(aminomethyl)-3-fluoroprop-2-en-1-yl]-4-[3′-chloro-4′-(morpholin-4-yl)biphenyl-3-yl]-2,4-dihydro-3H-1,2,4-triazol-3-one hydrochloride]
10 | > 10000 nM | > 100000 nM | 18 nM | 0.8 nM | Cc1cc(-c2cccc(-n3cnn(C/C(=C/F)CN)c3=O)c2)ccc1N1CCOCC1 [Example 77, 2-[(2E)-2-(aminomethyl)-3-fluoroprop-2-en-1-yl]-4-[3′-methyl-4′-(morpholin-4-yl)biphenyl-3-yl]-2,4-dihydro-3H-1,2,4-triazol-3-one hydrochloride]
11 | > 10000 nM | > 100000 nM | 0.2 nM | 1 nM | NC/C(=C\F)Cn1ncn(-c2cccc(-c3ccc(C(=O)N4CCOCC4)cc3)c2)c1=O [Example 78, 2-[(2E)-2-(aminomethyl)-3-fluoroprop-2-en-1-yl]-4-[4′-(morpholin-4-ylcarbonyl)biphenyl-3-yl]-2,4-dihydro-3H-1,2,4-triazol-3-one hydrochloride]
12 | 7520 nM | > 100000 nM | < 100 nM | 0.54 nM | CC(=O)Nc1cc(-c2cccc(-n3cnn(C/C(=C/F)CN)c3=O)c2)ccn1 [Example 81, N-[4-(3-{1-[(2E)-2-(aminomethyl)-3-fluoroprop-2-en-1-yl]-5-oxo-1,5-dihydro-4H-1,2,4-triazol-4-yl}phenyl)pyridin-2-yl]acetamide hydrochloride]

Source: patent publication US11492335B2, “Aryl or heteroaryl triazolone derivatives or salts thereof, or pharmaceutical compositions comprising the same” (YUHAN CORPORATION, priority 2018, dated 2022)
